Source: US5321123A, “Protein S polypeptides and anti-peptide antibodies that inhibit protein S binding to C4B binding protein, diagnostic systems and therapeutic methods” (The Scripps Research Institute, priority 1992, dated 1994)
Like-named read-outs stand apart in the source and are kept apart here. Bridge positions count the residues as written; N and C are the ends. Peptide text beside a SMILES is read from it.

Assays:
PS:C4BP complex [1] = target: T1, PS:C4BP complex (Homo sapiens, UniProt P04003+P20851); experiment: Peptide inhibition of b-C4BP binding to PS-coated wells; conditions: b-C4BP 1 μg/ml, peptide 0-500 μM
T1 construct: Purified human C4BP was obtained from 5 liters (l) of human citrated plasma; from tissue; host or cells: human citrated plasma (C4BP); protein S by the method of Schwarz et al
T1 sequence (P04003 49-597): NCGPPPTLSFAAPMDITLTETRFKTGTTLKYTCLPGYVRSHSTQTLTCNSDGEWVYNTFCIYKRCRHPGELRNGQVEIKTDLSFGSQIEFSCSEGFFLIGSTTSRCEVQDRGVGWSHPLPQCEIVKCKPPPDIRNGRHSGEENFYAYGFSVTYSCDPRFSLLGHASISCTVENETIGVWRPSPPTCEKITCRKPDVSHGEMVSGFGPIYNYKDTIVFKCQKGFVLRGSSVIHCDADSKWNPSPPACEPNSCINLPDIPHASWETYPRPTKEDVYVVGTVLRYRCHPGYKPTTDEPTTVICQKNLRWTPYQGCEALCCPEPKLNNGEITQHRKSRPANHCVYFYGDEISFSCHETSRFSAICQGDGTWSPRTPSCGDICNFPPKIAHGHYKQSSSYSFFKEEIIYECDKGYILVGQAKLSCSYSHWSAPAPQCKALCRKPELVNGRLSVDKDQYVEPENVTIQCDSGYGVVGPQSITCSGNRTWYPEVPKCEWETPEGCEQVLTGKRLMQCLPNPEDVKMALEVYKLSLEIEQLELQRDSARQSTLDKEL
T1 sequence (P20851 18-252): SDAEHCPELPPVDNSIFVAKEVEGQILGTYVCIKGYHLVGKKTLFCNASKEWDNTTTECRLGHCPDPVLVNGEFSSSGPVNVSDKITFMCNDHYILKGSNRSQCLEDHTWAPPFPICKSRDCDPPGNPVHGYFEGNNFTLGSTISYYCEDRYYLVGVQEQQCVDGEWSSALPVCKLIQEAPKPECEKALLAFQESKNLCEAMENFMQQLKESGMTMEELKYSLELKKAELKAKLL
Method: An alternative approach was used to test the ability of the peptides, PSP-loop, PSP-424K and PSP-428K, in comparison with that seen with the PSP-12 peptide, in inhibiting the binding of C4BP to PS. For this assay, the microtiter wells were coated with purified PS diluted to a concentration of 10 μg/ml in carbonate-coating buffer as described above. The wells were maintained to allow the PS to bind to the well walls. After the maintenance period, the wells were blocked also as described above. The selected PSP peptides were separately admixed at various concentrations ranging from 0-500 μM with biotinylated-C4BP (b-C4BP) at a concentration of 1 μg/ml. The admixtures were maintained on a fluid phase plate for 2 hours at room temperature to form peptide-C4BP complexes.
Fifty μl of the complexed admixtures were separately admixed to the prepared […] and maintained for 1 hour at room temperature. Thereafter, the plate was washed and processed for developing as described above.

PS:C4BP complex [2] = target: T1, PS:C4BP complex; experiment: Fluid-phase peptide inhibition of b-PS binding to C4BP, detected on anti-C4BP polyclonal antibody-coated plates
Method: (§1) An alternative approach was used to test the ability of the peptides, PSP-loop, PSP-424K and PSP-428K, in comparison with that seen with the PSP-12 peptide, in inhibiting the binding of PS to C4BP, the result of which was detected on polyclonal antibody-coated plates. For this assay, C4BP, biotinylated-PS (b-PS) and PSP peptides were admixed together at the respective concentrations of 3 μg/ml, 0.6 μg/ml and at a range of 0-500 μM (V:V:V). The admixtures were maintained for 2 hours at room temperature on a fluid phase plate to allow the binding and/or inhibition thereof of PS to C4BP by the PS-derived peptides. After the maintenance period, 50 μl of the admixture were separately admixed to wells previously coated with 10 μg/ml of anti-C4BP IgG polyclonal antibody. The admixtures were maintained for 1 hour at room temperature to allow for the binding of C4BP to C4BP-antibody-coated plates. The binding of biotinylated complexes to the antibody-coated plates was detected as described in Example 5Aii.

PS:C4BP complex [3] = target: T1, PS:C4BP complex; experiment: Fluid-phase peptide inhibition of PS binding to b-C4BP, detected on MAb S-7-coated plates; conditions: b-C4BP 0.5 μg/ml, PS 1.0 μg/ml
Method: as §1, with “monoclonal” for “polyclonal”, “biotinylated-C4BP (b-C4BP), PS” for “C4BP, biotinylated-PS (b-PS)”, “0.5” for “3”, “1.0” for “0.6”, “MAb S-7 (ATCC No. HB 80819).” for “anti-C4BP IgG polyclonal antibody.”, “MAb S-7-antibody-coated” for “C4BP-antibody-coated”

[4] = target: T2, interaction of protein S with C4BP (Homo sapiens, UniProt P04003+P20851); conditions: in vitro; Walker et al., Weinstein et al.; cited from earlier work
T2 sequence (P04003 49-597): T1 sequence (P04003 49-597)
T2 sequence (P20851 18-252): T1 sequence (P20851 18-252)

PS:C4BP complex [5] = target: T1, PS:C4BP complex; experiment: Peptide Inhibition Assay: b-PS binding to C4BP in solid-phase
Method: Each of the peptides produced as described in Example 1 and listed in Table 1 was analyzed for its ability to inhibit the binding of native protein S in liquid-phase to C4BP in solid-phase.
Microtiter wells of a 96 well plate were coated with 50 μl of 10 μg/ml purified C4BP in carbonate buffer (0.02M Na2 CO3, pH 9.0, 0.02% Na-Azide). After blocking with 10% BSA in TBS, 50 μl of different concentrations of peptides diluted in washing buffer (TBS, 0.2% BSA, 5mM CaCl, 0.02% Tween 20) were separately admixed to C4BP-coated wells. After 2 hours at room temperature, 50 μl of a solution of biotinylated protein S, were admixed to each well to form a second binding admixture having a final concentration of 2 μg/ml. The plate was agitated and the samples Were incubated 1 hour at room temperature. The samples were discarded and the wells were washed 3 times with washing buffer. […] The resulting optical densities of the reaction solutions were read as described before in Example 2C. […]
where I is expressed as a percent; and where 100%=delta/min of the amount of b-PS which specifically bound to C4BP-coated wells in the absence of any competing PS-peptide; and where deltaT =the change in absorbance (405 nm) in the presence of competing PS-peptide; and where deltaC =the change in absorbance (405 nm) in the absence of competing PS-peptide.

C4BP = target: T3, C4BP (Homo sapiens, UniProt P04003+P20851); conditions: read-out: dissociation constant (Kd) for the protein S - C4BP interaction, cited from earlier work
T3 sequence (P04003 49-597): T1 sequence (P04003 49-597)
T3 sequence (P20851 18-252): T1 sequence (P20851 18-252)

With `CC[C@H](C)[C@H](NC(=O)CNC(=O)[C@@H](N)CO)C(=O)N[C@@H](CCCCN)C(=O)N[C@@H](CCCCN)C(=O)N[C@H](C(=O)N[C@H](C(=O)N[C@@H](CCC(N)=O)C(=O)N[C@@H](CCC(=O)O)C(=O)N[C@@H](CCCCN)C(=O)N[C@@H](CCC(N)=O)C(=O)N[C@@H](CC(N)=O)C(=O)N[C@@H](CCCCN)C(=O)N[C@@H](CS)C(N)=O)[C@@H](C)CC)[C@@H](C)CC` [PSP-424K, SGIKKIIQEKQNKC] (H-SGIKKIIQEKQNKC-NH2; N-terminus assumed) the IC90 (PS:C4BP complex [1]) was about 250 µM, the “inhibition of binding of b-PS to C4BP compared with PSP-loop” value (PS:C4BP complex [2]) was “inhibitory but with lower effectiveness” and the IC90 (PS:C4BP complex [3]) was about 250 µM.
For `CC[C@H](C)[C@H](NC(=O)[C@H](C)NC(=O)[C@H](CCC(=O)O)NC(=O)[C@H](CC(=O)O)NC(=O)[C@H](CC(C)C)NC(=O)[C@H](CC(=O)O)NC(=O)[C@H](CC(C)C)NC(=O)[C@H](CCC(N)=O)NC(=O)[C@@H](NC(=O)CN)C(C)C)C(N)=O` [PSP-605, GVQLDLDEAI] (H-GVQLDLDEAI-NH2; N-terminus assumed), the “inhibition of the interaction of protein S with C4BP” value [4] is given as “inhibits the interaction of protein S with C4BP in vitro”.
For `CC[C@H](C)[C@@H]1NC(=O)[C@H](CO)NC(=O)[C@H](C)NC(=O)CNC(=O)[C@H](CCC(N)=O)NC(=O)[C@H](CCCCN)NC(=O)[C@H](CCSC)NC(=O)[C@H](CC(C)C)NC(=O)[C@H](CC(N)=O)NC(=O)[C@H](Cc2c[nH]c3ccccc23)NC(=O)[C@H](CO)NC(=O)[C@H](CCCNC(=N)N)NC(=O)[C@H]([C@@H](C)CC)NC(=O)[C@@H](N)CSSC[C@@H](C(N)=O)NC(=O)[C@H](Cc2c[nH]cn2)NC(=O)[C@H](CCCCN)NC(=O)[C@H](CC(N)=O)NC(=O)[C@H](CCC(N)=O)NC(=O)[C@H](CCCCN)NC(=O)[C@H](CCC(=O)O)NC(=O)[C@H](CCC(N)=O)NC(=O)[C@H]([C@@H](C)CC)NC(=O)[C@H]([C@@H](C)CC)NC(=O)[C@H](CCC(=O)O)NC(=O)[C@H](CCCCN)NC1=O` [PSP-loop] (H-CIRSWNLMKQGASIKEIIQEKQNKHC-NH2; disulfide 1-26 (inferred); N-terminus and C-terminus assumed), the “peptide concentration that completely inhibits the binding of PS to C4BP” value (PS:C4BP complex [5]; subsequent experiments) was “approximately 250 μM” and the IC50 (PS:C4BP complex [2]; C4BP 3 μg/ml, b-PS 0.6 μg/ml) was about 40 µM.
For CPEGYRYNLKSKSC [PSP-7], the “inhibition of PS:C4BP complex formation relative to PS-peptides from other regions of protein S” value (PS:C4BP complex [5]) was “strong inhibition”.
In the case of “Protein S: vitamin K-dependent single chain plasma glycoprotein of 75,000 daltons, cofactor to activated protein C”, the Kd (C4BP; in the presence of Ca++) is listed as 0.0006 µM and the Kd (C4BP; in the presence of EDTA) is listed as 0.001 µM.
